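Exposure lasted 48 hours, with cells grown in 96-well plates and compounds tested at five concentrations. TGI denotes the concentration required for complete inhibition of growth.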 Where a SMILES comes first, the peptide text is derived from it. The star is where a group is joined. X36 = O=C(c1ccc(-c2ccc(Cl)cc2Cl)o1)*

What all share (assay): NCI anticancer screen, dose series, 48 h
Assay [1] deals with SR leukemia.
Assay [2] relates to HL-60(TB) leukemia.
Assay [3] deals with EKVX NSCLC.
The test system of assay [4] is KM12 colon.
Assay [5] has as its system PC-3 prostate.
Assay [6] deals with LOX IMVI melanoma.
In assay [7] the test system is IGROV1 ovarian.
Assay [8] concerns OVCAR-8 ovarian.
Assay [9] deals with NCI-H522 lung.
Assay [10] relates to SN12C renal.

As for `CC1Cn2c(nc3ccccc32)NC1=O` (configuration not stated), the TGI in assay [1], in assay [2], in [3], in assay [4], in assay [5] and in assay [6] was greater than 100 µM throughout. Further, the TGI in assay [7], in [8] and in [9] was greater than 100 µM each time.
Regarding `Cc1ccc2c(=O)cc(-c3cccs3)[nH]c2n1`, the TGI in [1] is greater than 100 µM; in assay [2], 25.5 µM; in assay [3], greater than 100 µM; in assay [10] it was greater than 100 µM; in assay [4] it was greater than 100 µM; in [5], greater than 95.8 µM. Moreover, the TGI was greater than 100 µM in assay [6], greater than 100 µM in assay [7], greater than 100 µM in [8] and greater than 47.4 µM in assay [9].
As for `CCC1(C(=O)OC(C)(C)C)OC12C(C)CCCC2C` (configuration not stated), the TGI in [1] was 38.3 µM; in [2], 37 µM; in [3], greater than 100 µM; in [10], greater than 100 µM; in assay [4], greater than 100 µM; in assay [5], greater than 100 µM. Further, the TGI was 96.1 µM in assay [6], greater than 100 µM in [7], greater than 100 µM in [8] and greater than 100 µM in [9].
As to `NCCSc1nc2ccccc2c(=O)n1-c1ccccc1`, the TGI in [1] is greater than 100 µM; in assay [2], 90.7 µM; in assay [3], greater than 100 µM; in [10], greater than 100 µM; in assay [4], greater than 100 µM; in assay [5], greater than 100 µM. Besides, the TGI in assay [6], in [7], in assay [8] and in assay [9] was greater than 100 µM each time.
`O=c1[nH]/c(=C/c2ccc(OCc3ccccc3)cn2)c(=O)[nH]/c1=C/c1ccc(O)cc1`: the TGI in assay [1] is 4.88 µM; in [2], 2.87 µM; in assay [3], greater than 89.1 µM; in assay [10], 8.9 µM; in assay [5] it was greater than 100 µM; in [6], 1.26 µM. Further, the TGI in [7] was 13.4 µM; in assay [8] it was greater than 32.4 µM; in [9], 0.806 µM.
As for `CC1(CF)SCc2nc3ccccc3n21` (configuration not stated), the TGI in assay [1], in assay [2], in [3], in assay [10], in assay [4] and in assay [5] was greater than 100 µM in each case. The TGI in assay [6], in assay [7], in assay [8] and in assay [9] was greater than 100 µM in each case.
Turning to `CC1=NN2C(=N)/C(=C/c3ccco3)C(=O)N=C2S1`, the TGI in [1], in assay [2], in [3], in assay [10], in assay [4] and in assay [5] was greater than 100 µM in each case. Further, the TGI in assay [6], in assay [7], in assay [8] and in [9] was greater than 100 µM in each case.
`CCC(C)C(NC(=O)CNC(=O)C(Cc1ccccc1)NC(=O)C1CCCN1C(=O)c1ccc(-c2ccc(Cl)cc2Cl)o1)C(=O)OC` (configuration not stated) (X36-PFGI-OMe; configuration not given here): the TGI in [1] is 95.6 µM; in [2], greater than 100 µM; in [3], 89.9 µM; in assay [10], 82.6 µM; in assay [4] it was greater than 100 µM; in assay [5], 49.1 µM. Also, the TGI in [6], in assay [7], in assay [8] and in assay [9] was greater than 100 µM throughout.
For the compound `C1CCC2C(C1)CCCC2NC1=NCCO1` (configuration not stated), the TGI in [1], in [2], in assay [3], in assay [10], in [4] and in assay [5] was greater than 100 µM each time. Besides, the TGI in [6], in assay [7], in [8] and in assay [9] was greater than 100 µM in each case.
For the compound `COC(=O)[C@H](Cc1ccccc1)NC(=O)[C@H](Cc1ccccc1)NC(=O)[C@@H]1CCCN1C(=O)N[C@H]1C2C=CC(C2)C1C(=O)N1CCC[C@H]1C(=O)N[C@@H](C)C(=O)N[C@H](C(=O)OC)C(C)C` (some centres not stated), the TGI in [1], in [2], in assay [3], in assay [10], in assay [4] and in assay [5] was greater than 100 µM throughout. Also, the TGI in [6], in [7], in assay [8] and in assay [9] was greater than 100 µM throughout.
Take `Cc1ccc(S(=O)(=O)OCC(=O)O)cc1`: the TGI in assay [1], in assay [2], in assay [3], in assay [10], in assay [5] and in assay [6] was greater than 100 µM in each case. Besides, the TGI in assay [7], in assay [8] and in assay [9] was greater than 100 µM in each case.
In the case of `N#Cc1nc(-c2cccs2)oc1N`, the TGI in [1], in assay [2], in assay [3], in assay [10], in assay [4] and in [5] was greater than 100 µM each time. Besides, the TGI in [6] was greater than 100 µM; in assay [7], greater than 100 µM; in assay [8], greater than 100 µM; in assay [9], 92 µM.
For `O=c1oc2ccccc2c(Nc2ccc3c(c2)Oc2ccccc2O3)c1[N+](=O)[O-]`, the TGI is greater than 100 µM in [1]; greater than 100 µM in assay [2]; 67.6 µM in assay [3]; greater than 100 µM in [10]; greater than 100 µM in assay [4]; 32.5 µM in assay [5]. Further, the TGI is greater than 100 µM in [6], 48.9 µM in assay [7], 37.6 µM in assay [8] and 65.5 µM in [9].
